From US20170105951A1, “COMBINATION THERAPY WITH THIOCOLCHICINE DERIVATIVES” (Abraxis BioScience, LLC, priority 2009, published 2017)

Tests used:
[1] = test system: quail embryonic CAM vasculature; experiment: Shell-less quail embryonic CAM assay, vascular disrupting activity; format: in vivo
Procedure: (§1) Methods: The antiangiogenic and VDA effects of ABI-011 were examined in vitro using tubule formation assay with human umbilical vein endothelial cells (HUVEC) and in vivo using the standard chick embryonic chorioallantoic membrane (CAM) assay with 3-day old embryos (n=18). The shell-less quail embryonic CAM assay was used to determine the time course of VDAs (ABI-011 vs. combretastatin A4 Phosphate [CA4P]). Quail embryos (n=36) were exposed to ABI-011 (1 to 16 μg/ml) on day 7 and digital CAM images were acquired over a 60 min period for scoring VDA. Subcutaneous human colon (HT29) tumors were grown in athymic nude mice and treated intravenously (IV) with ABI-011 (20-40 mg/kg; q4d×3, IV) or CA4P (200 mg/kg; qd×4, IV). The animal weights and tumor measurements were recorded three times weekly and adverse observations recorded.

[2] = test system: human colon (HT29) tumors; experiment: Subcutaneous HT29 colon tumor xenograft, ABI-011 vs CA4P (Example 3); format: in vivo, athymic nude mice; conditions: CA4P 200 mg/kg, qd×4, IV
Procedure: as §1

[3] = test system: human PC3 prostate cancer xenograft; experiment: Subcutaneous PC3 prostate tumor xenograft, tumor growth inhibition; format: in vivo, athymic nude mice; conditions: Avastin 8 mg/kg 2x/wk
Procedure: (§2) Methods: Subcutaneous human breast (MDA-MB-231), colon (HT29) and prostate (PC3) tumors were grown in athymic nude mice and treated intravenously (IV) with sub-optimal dose of ABI-011 alone at 20 mg/kg (q4d×3, q4d×2, or qd×1) and in combination with nab-paclitaxel (5 mg/kg, q4d×3, IV) or bevacizumab (8 mg/kg, 2×wkly, IP). The effect of dose, schedule, and sequence of combination regimen on therapeutic efficacy was tested. ABI-011 was administered 24 h before, concurrent with, or 24 h after nab-paclitaxel or bevacizumab treatment.

[4] = Body weight change in PC3 tumor-bearing mice; format: in vivo, athymic nude mice; conditions: Avastin 8 mg/kg 2x/wk
Procedure: as §2

[5] = test system: human HT29 colon cancer xenograft; experiment: Subcutaneous HT29 colon tumor xenograft, antitumor activity (Example 1); format: in vivo, athymic nude mice; conditions: Avastin 8 mg/kg 2x/wk
Procedure: as §2

Compound	Vascular disrupting activity (VDA), in words ([1]; quail CAM, at concentrations much higher than the effective dose of ABI-011)	IC50, vascular disrupting activity (VDA) ([1]; quail embryonic CAM, scored over 60 min) [µg/mL]	LD50, embryonic mortalities ([1]; quail embryos) [µg/mL]	Antitumor efficacy, in words [2]	TGI, tumor growth inhibition on day 23 [3] [%]	BWC, percent body weight change on day 21 [4] [%]	TGI, tumor growth inhibition on day 23 [5] [%]	Three-TDT [5] [days]
COc1ccc(/C=C\c2cc(OC)c(OC)c(OC)c2)cc1OP(=O)(O)O [CA4P, combretastatin A4 Phosphate]	only modest VDA	13.1	12.8	ineffective	–	–	–	–
Avastin: anti-VEGF antibody (bevacizumab)	–	–	–	–	52.9	−24.6	75.3	19.3
